Measured values from patent US6992079B2, “Substituted 11-phenyl-dibenzazepine compounds useful for the treatment or prevention of diseases characterized by abnormal cell proliferation” (President Fellows of Harvard College, priority 1997, dated 2006).

How the values were obtained:
[1] = tested on: NIH 3T3 mouse fibroblast cells; assay: Mitogenic assay (mitogen-induced cell proliferation); type: cell-based; settings: Mus musculus, NIH3T3, 10 μM compound
A549 = assay: SRB antiproliferative assay; type: cell-based; settings: Homo sapiens, A549, A549 (Lung), 5% FCS/5 day incubation
From the text: (§1) The cells were passaged using Trypsin (Gibco).

HEPG2 = assay: SRB antiproliferative assay; type: cell-based; settings: Homo sapiens, HepG2, HEPG2 (Hepatocel), 5% FCS/5 day incubation
From the text: as §1

HT29 = assay: SRB antiproliferative assay; type: cell-based; settings: Homo sapiens, HT-29, HT29 (Colon), 5% FCS/5 day incubation
From the text: as §1

HeLa = assay: SRB antiproliferative assay; type: cell-based; settings: Homo sapiens, HeLa (Cervical), 5% FCS/5 day incubation
From the text: as §1

MCF7 = assay: SRB antiproliferative assay; type: cell-based; settings: Homo sapiens, MCF7, MCF7 (Breast), 5% FCS/5 day incubation
From the text: as §1

U118MG = assay: SRB antiproliferative assay; type: cell-based; settings: Homo sapiens, U-118-MG, U118MG (CNS), 5% FCS/5 day incubation
From the text: as §1

[2] = tested on: SU.86.86 pancreatic adenocarcinoma; assay: Mouse xenograft tumor growth; type: in vivo, nude mice; settings: SU.86.86 pancreatic adenocarcinoma mouse xenograft
[3] = tested on: H460 large cell lung carcinoma; assay: Mouse xenograft tumor growth; type: in vivo, CD-1 nude mice
[4] = tested on: A2058 metastatic melanoma; assay: Mouse xenograft tumor growth; type: in vivo, CD-1 nude mice
Method: NCI-A2058 human melanoma cell line was grown as monolayer culture in Minimum essential medium (D-MEM) supplemented with 10% fetal bovine serum (FBS), 0.1 mM non-essential amino acid, 1.0 mM sodium pyruvate, 100U/ml penicillin, 100 μg/ml streptomycin and 0.25 μg/ml amphotericin B and L-alanyl-1-glutamine (2 mM) at 37° C. in an atmosphere of 5% CO2 in air. The tumor cells were routinely subcultured twice weekly by trypsin-EDTA treatment. The cells were harvested from subconfluent logarithmically growing culture by treatment with typsin-EDTA and counted for tumor inoculation.
An acclimation period of at least 7 days were allowed between animal receipt and commence of tumor inoculation. When the female CD-1 nude mice were more than 6-7 weeks of age (20-25 g), each mouse was subcutaneously injected with 5.0×10^6 NCI-A2058 human melanoma cells in 0.1 ml of PBS solution at the right flank of the mice to induce tumor growth.

SR = assay: In-Vitro Testing SRB panel: Leukemia; type: cell-based
COLO 205 = assay: In-Vitro Testing SRB panel: Colon Cancer; type: cell-based
HCT-116 = assay: In-Vitro Testing SRB panel: Colon Cancer; type: cell-based
SF-539 = assay: In-Vitro Testing SRB panel: CNS Cancer; type: cell-based
SK-MEL-2 = assay: In-Vitro Testing SRB panel: Melanoma; type: cell-based
UACC-257 = assay: In-Vitro Testing SRB panel: Melanoma; type: cell-based
IGROV1 = assay: In-Vitro Testing SRB panel: Ovarian Cancer; type: cell-based
OVCAR-4 = assay: In-Vitro Testing SRB panel: Ovarian Cancer; type: cell-based
ACHN = assay: In-Vitro Testing SRB panel: Renal Cancer; type: cell-based
OVCAR-3 = assay: In-Vitro Testing SRB panel: Ovarian Cancer
[5] = Homo sapiens, read-out: LC50 (the source's name)

## COc1ccc2c(c1)CN(C(=O)c1ccc([N+](=O)[O-])cc1)c1ccc(Cl)cc1C2c1ccccc1Cl (centres unmarked) [Compound 30]
[1]
  inhibition at 10 µM: 99%
A549
  IC50: 1500 nM
HEPG2
  IC50: 900 nM
HT29
  IC50: 600 nM
HeLa
  IC50: 500 nM
MCF7
  IC50: 1300 nM
U118MG
  IC50: 800 nM
[2]
  tumor growth: showed inhibition of tumor growth
[3]
  tumor growth: showed inhibition of tumor growth
[4]
  tumor growth: showed inhibition of tumor growth
SR
  TGI: >1.00E−04 Molar
SR; Homo sapiens
  GI50: 455 nM
SR; [5]
  CC50: > 100000 nM
SR; Log10 concentration −4.0 Molar
  Percent Growth: 23%
SR; Log10 concentration −5.0 Molar
  Percent Growth: 12%
SR; Log10 concentration −6.0 Molar
  Percent Growth: 32%
SR; Log10 concentration −7.0 Molar
  Percent Growth: 85%
SR; Log10 concentration −8.0 Molar
  Percent Growth: 77%
COLO 205; COLO 205
  TGI: >1.00E−04 Molar
COLO 205; COLO 205, Log10 concentration −4.0 Molar
  Percent Growth: 43%
COLO 205; COLO 205, Log10 concentration −5.0 Molar
  Percent Growth: 46%
COLO 205; COLO 205, Log10 concentration −6.0 Molar
  Percent Growth: 68%
COLO 205; COLO 205, Log10 concentration −7.0 Molar
  Percent Growth: 87%
COLO 205; COLO 205, Log10 concentration −8.0 Molar
  Percent Growth: 93%
COLO 205; Homo sapiens, COLO 205
  GI50: 6640 nM
COLO 205; Homo sapiens, COLO 205, read-out: LC50 (the source's name)
  CC50: > 100000 nM
HCT-116; HCT-116
  TGI: 1.00E−04 Molar
HCT-116; HCT-116, Log10 concentration −4.0 Molar
  Percent Growth: 22%
HCT-116; HCT-116, Log10 concentration −5.0 Molar
  Percent Growth: 17%
HCT-116; HCT-116, Log10 concentration −6.0 Molar
  Percent Growth: 63%
HCT-116; HCT-116, Log10 concentration −7.0 Molar
  Percent Growth: 90%
HCT-116; HCT-116, Log10 concentration −8.0 Molar
  Percent Growth: 97%
HCT-116; Homo sapiens, HCT-116
  GI50: 1910 nM
HCT-116; Homo sapiens, HCT-116, read-out: LC50 (the source's name)
  CC50: > 100000 nM
SF-539; Homo sapiens, SF-539
  GI50: 3870 nM
SF-539; Homo sapiens, SF-539, read-out: LC50 (the source's name)
  CC50: > 100000 nM
SF-539; SF-539
  TGI: >1.00E−04 Molar
SF-539; SF-539, Log10 concentration −4.0 Molar
  Percent Growth: 20%
SF-539; SF-539, Log10 concentration −5.0 Molar
  Percent Growth: 33%
SF-539; SF-539, Log10 concentration −6.0 Molar
  Percent Growth: 75%
SF-539; SF-539, Log10 concentration −7.0 Molar
  Percent Growth: 92%
SF-539; SF-539, Log10 concentration −8.0 Molar
  Percent Growth: 93%
SK-MEL-2; Homo sapiens, SK-MEL-2
  GI50: > 100000 nM
SK-MEL-2; Homo sapiens, SK-MEL-2, read-out: LC50 (the source's name)
  CC50: > 100000 nM
SK-MEL-2; SK-MEL-2
  TGI: >1.00E−04 Molar
SK-MEL-2; SK-MEL-2, Log10 concentration −4.0 Molar
  Percent Growth: 71%
SK-MEL-2; SK-MEL-2, Log10 concentration −5.0 Molar
  Percent Growth: 74%
SK-MEL-2; SK-MEL-2, Log10 concentration −6.0 Molar
  Percent Growth: 95%
SK-MEL-2; SK-MEL-2, Log10 concentration −7.0 Molar
  Percent Growth: 94%
SK-MEL-2; SK-MEL-2, Log10 concentration −8.0 Molar
  Percent Growth: 102%
UACC-257; Homo sapiens, UACC-257
  GI50: 1860 nM
UACC-257; Homo sapiens, UACC-257, read-out: LC50 (the source's name)
  CC50: > 100000 nM
UACC-257; UACC-257
  TGI: >1.00E−04 Molar
UACC-257; UACC-257, Log10 concentration −4.0 Molar
  Percent Growth: 13%
UACC-257; UACC-257, Log10 concentration −5.0 Molar
  Percent Growth: 20%
UACC-257; UACC-257, Log10 concentration −6.0 Molar
  Percent Growth: 61%
UACC-257; UACC-257, Log10 concentration −7.0 Molar
  Percent Growth: 91%
UACC-257; UACC-257, Log10 concentration −8.0 Molar
  Percent Growth: 99%
IGROV1; Homo sapiens, IGROV-1
  GI50: 6350 nM
IGROV1; Homo sapiens, IGROV-1, IGROV1, read-out: LC50 (the source's name)
  CC50: > 100000 nM
IGROV1; IGROV1
  TGI: >1.00E−04 Molar
IGROV1; IGROV1, Log10 concentration −4.0 Molar
  Percent Growth: 36%
IGROV1; IGROV1, Log10 concentration −5.0 Molar
  Percent Growth: 41%
IGROV1; IGROV1, Log10 concentration −6.0 Molar
  Percent Growth: 86%
IGROV1; IGROV1, Log10 concentration −7.0 Molar
  Percent Growth: 97%
IGROV1; IGROV1, Log10 concentration −8.0 Molar
  Percent Growth: 97%
OVCAR-4; Homo sapiens, OVCAR-4
  GI50: 1860 nM
OVCAR-4; Homo sapiens, OVCAR-4, read-out: LC50 (the source's name)
  CC50: > 100000 nM
OVCAR-4; OVCAR-4
  TGI: 9.89E−06 Molar
OVCAR-4; OVCAR-4, Log10 concentration −4.0 Molar
  Percent Growth: −9%
OVCAR-4; OVCAR-4, Log10 concentration −5.0 Molar
  Percent Growth: 0%
OVCAR-4; OVCAR-4, Log10 concentration −6.0 Molar
  Percent Growth: 69%
OVCAR-4; OVCAR-4, Log10 concentration −7.0 Molar
  Percent Growth: 103%
OVCAR-4; OVCAR-4, Log10 concentration −8.0 Molar
  Percent Growth: 109%
ACHN
  TGI: >1.00E−04 Molar
ACHN; [5]
  CC50: > 100000 nM
ACHN; Log10 concentration −4.0 Molar
  Percent Growth: 53%
ACHN; Log10 concentration −5.0 Molar
  Percent Growth: 50%
ACHN; Log10 concentration −6.0 Molar
  Percent Growth: 94%
ACHN; Log10 concentration −7.0 Molar
  Percent Growth: 108%
ACHN; Log10 concentration −8.0 Molar
  Percent Growth: 107%
OVCAR-3; Homo sapiens, OVCAR-3
  GI50: 10200 nM
OVCAR-3; Homo sapiens, OVCAR-3, read-out: LC50
  CC50: > 100000 nM
OVCAR-3; OVCAR-3
  TGI: >1.00E−04 Molar
OVCAR-3; OVCAR-3, Log10 concentration −4.0 Molar
  Percent Growth: 43%
OVCAR-3; OVCAR-3, Log10 concentration −5.0 Molar
  Percent Growth: 50%
OVCAR-3; OVCAR-3, Log10 concentration −6.0 Molar
  Percent Growth: 89%
OVCAR-3; OVCAR-3, Log10 concentration −7.0 Molar
  Percent Growth: 105%
OVCAR-3; OVCAR-3, Log10 concentration −8.0 Molar
  Percent Growth: 95%
